pIC50: −log10 of the molar value.
Tests used:
Format in all cases: cell-based
[1] = tested on: LNCaP cells; assay: Antiproliferative activity on LNCaP in medium without steroids (WST-1); details: 144 h, 1 nM to 100 μM
Procedure: The anti-proliferative activity of the compounds of the present invention is determined on LNCaP in medium without steroids.
The maintenance of the LNCaP line is carried out under the usual conditions in RPMI, 10% of foetal calf serum, 2 mM of glutamine, 100 U/ml of penicillin, 0.1 mg/ml of streptomycin and 0.01M HEPES, 1 mM sodium pyruvate, 40% of D-glucose.
For the study under conditions without steroids, 24 hours before the seeding the culture medium of the cells is eliminated. The cells are washed with PBS, then incubated in the presence of RPMI medium without phenol red, 10% of foetal calf serum without steroids (treatment with carbon), 2 mM of glutamine, 100 U/ml of penicillin, 0.1 mg/ml of streptomycin and 0.01M HEPES, 1 mM of sodium pyruvate, 40% of D-glucose. • Seeding the plates:
The LNCaP line is seeded at 20,000 cells/well in 90 μl of RPMI medium with 10% foetal calf serum without steroids in 96-well plates coated with poly-D-lysine (Biocoat, Costar). • Treatment of the cells: 24 h after seeding, the cells are treated with 10 μl/well of compound diluted in the culture medium. Experiments showing the dose-effect of the compound are carried out on a scale of 1 nM to 100 μM. The concentrations used are the following: 1 nM/10/30/100/300/1000/3000/10,000/100,000 nM. Testosterone (SIGMA T1500) is used as a reference and tested at the same concentrations. The cells are incubated for 144 h at 37° C., 5% CO2. • Reading: On D6, 10 μL of cell proliferation reagent WST-1 (Roche ref 1644807) is added to each well. After incubation for 2 to 4 hours at 37° C., 5% CO2, the absorbance at 450 nm is measured by spectrophotometry (Envision, Perkin Elmer). • Results: The experiments are carried out in duplicate and the best compounds are tested twice. […] 3. Antiproliferative Activity on DU-145 in Complete Medium: […]

[2] = target: T1, androgen receptor (Homo sapiens, UniProt P10275, T878A); assay: Measurement of the disappearance of the androgen receptor (Western blot, LNCaP cells); details: 72 hours after treatment
T1 construct: The LNCaP cell type (ATCC, 1740) originating from a prostate carcinoma expressing the androgen receptor; host or cells: LNCaP
T1 sequence (P10275 1-920 T878A): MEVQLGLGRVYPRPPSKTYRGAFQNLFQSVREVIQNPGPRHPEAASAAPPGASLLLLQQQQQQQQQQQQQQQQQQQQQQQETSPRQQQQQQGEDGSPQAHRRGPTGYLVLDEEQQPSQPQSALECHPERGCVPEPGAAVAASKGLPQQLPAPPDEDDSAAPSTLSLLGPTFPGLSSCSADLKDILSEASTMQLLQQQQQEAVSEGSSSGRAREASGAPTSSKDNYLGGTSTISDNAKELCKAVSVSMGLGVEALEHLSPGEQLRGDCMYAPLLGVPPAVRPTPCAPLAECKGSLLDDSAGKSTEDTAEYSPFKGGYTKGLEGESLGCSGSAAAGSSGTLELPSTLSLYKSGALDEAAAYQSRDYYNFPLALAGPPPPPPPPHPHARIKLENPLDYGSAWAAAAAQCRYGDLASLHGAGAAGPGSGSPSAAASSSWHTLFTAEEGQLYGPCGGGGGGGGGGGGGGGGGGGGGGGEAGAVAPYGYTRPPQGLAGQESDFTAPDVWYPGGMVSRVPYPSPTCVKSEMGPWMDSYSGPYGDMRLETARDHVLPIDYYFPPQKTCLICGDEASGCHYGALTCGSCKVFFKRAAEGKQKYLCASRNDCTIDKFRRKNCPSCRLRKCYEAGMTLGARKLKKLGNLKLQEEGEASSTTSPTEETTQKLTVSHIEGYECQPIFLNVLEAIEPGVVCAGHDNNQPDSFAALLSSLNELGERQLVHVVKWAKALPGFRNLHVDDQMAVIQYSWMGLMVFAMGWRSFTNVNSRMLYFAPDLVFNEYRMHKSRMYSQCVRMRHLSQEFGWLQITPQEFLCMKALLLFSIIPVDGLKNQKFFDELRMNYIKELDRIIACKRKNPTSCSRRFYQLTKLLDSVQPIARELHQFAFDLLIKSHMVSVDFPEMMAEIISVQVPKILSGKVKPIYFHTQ
Procedure: The cells of the LNCaP line are seeded at a rate of 2.5 millions of cells per 10 cm Petri dish in RPMI, 10% of foetal calf serum, 2 mM of glutamine, 100 U/ml of penicillin, 0.1 mg/ml of streptomycin and 0.01M HEPES, 1 mM of sodium pyruvate, 40% of D-glucose. 4 days later, the cells are treated with the compound to be tested. 72 hours after the treatment the cells are lyzed in lysis buffer (50 mM Tris pH 7.4, 150 mM NaCl, 1 mM EDTA, 20 mM NaF, 100 mM Na2VO3, 0.5% of NP40, 1% of Triton X-100, 1 mM EGTA, Pefabloc, protease inhibitor cocktail 11836170001 RocheDiagnostics, Phosphatase inhibitor cocktail set II Calbiochem). The cells are then scrapped and the lysate transferred into QIAshredder tubes (cat No. 79656 Qiagen) for centrifugation at 13,000 rpm for 15 min at 4° C. The supernatant is transferred into QIAshredder tubes for a second centrifugation at 13,000 rpm for 5 min in order to completely eliminate the DNA filaments. […] The loading buffer (sample loading buffer 3×ref 7722 Cell signaling technology) with added 1% beta-mercaptoethanol and 50 mM DTT, is added to the samples which are then heated for 10 min at 90° C. The samples are deposited under a volume of 20 μl on NuPAGE 4-12% Bis-Tris gels (cat No. NP0322BOX, Invitrogen). The migration takes place in MOPS buffer (Invitrogen) and is carried out for 1 hour at 180V. […]

[3] = tested on: DU145 cells; assay: Antiproliferative activity on DU-145 in complete medium (WST-1); details: Homo sapiens, 144 h incubation, read-out: IC50 on the DU145 cells in culture (concentration inhibiting cell proliferation by 50%)
Procedure: The anti-proliferative activity of the compounds of the present invention is determined on DU-145 in complete medium.
Maintenance of the DU-145 line is carried out in DMEM, 10% of foetal calf serum, 2 mM of glutamine, 100 U/ml of penicillin, 0.1 mg/ml of streptomycin. • Seeding the plates: • The DU145 line is seeded at 400 or 800 cells/well in 90 μl of DMEM complete medium in 96-well plates (TPP). • Treatment of the cells: 24 h after the seeding, the cells are treated with 10 μl/well of compound diluted in the culture medium. Experiments showing the dose-effect of the compound are carried out on a scale of 1 nM to 100 μM. The concentrations used are the following: 1 nM/10/30/100/300/1000/3000/10,000/100,000 nM. The cells are incubated for 144 h at 37° C., 5% CO2. • Reading: On D6, 10 μL, of cell proliferation reagent WST-1 (Roche ref 1644807) is added to each well. After incubation for 2 to 4 hours at 37° C., 5% CO2, the absorbance at 450 nm is measured by spectrophotometry (Envision, Perkin Elmer). • Results: The experiments are carried out in duplicate and the best compounds are tested twice. […] 4. Measurement of the Disappearance of the Androgen Receptor

| pIC50 [3] | SMILES | effect on the cell proliferation of LNCaP cultured in medium without steroids (FIG. 1) [1] | effect on the protein expression of the androgen receptor (FIGS. 2-4) [2] |
| --- | --- | --- | --- |
|  | CN(C)CC(=O)Nc1ccc(N2C(=O)N(CCCCCCCCC[S+]([O-])CCCC(F)(F)C(F)(F)F)C(C)(C)C2=O)cc1C(F)(F)F (centres unmarked) [Example 43a, N-[4-(4,4-dimethyl-2,5-dioxo-3-{9-[(4,4,5,5,5-pentafluoropentyl)sulphinyl]nonyl}imidazolidin-1-yl)-2-(trifluoromethyl)phenyl]-N^2,N^2-dimethylglycinamide] | anti-proliferative activity on the LNCaP cells without an agonist effect | reduction in the protein expression of the androgen receptor |
| < 5.00 | CC(=O)Nc1ccc(N2C(=O)N(CCCCCCCCC[S+]([O-])CCCC(F)(F)C(F)(F)F)C(C)(C)C2=O)cc1C(F)(F)F (centres unmarked) [Example 18, N-[4-(4,4-dimethyl-2,5-dioxo-3-{9-[(4,4,5,5,5-pentafluoropentyl)sulphinyl]-nonyl}imidazolidin-1-yl)-2-(trifluoromethyl)phenyl]acetamide] | anti-proliferative activity on the LNCaP cells without an agonist effect | reduction in the protein expression of the androgen receptor |

— patent publication US8710091B2, “Imidazolidine-2,4-dione derivatives, and use thereof as a cancer drug” (Ipsen Pharma S.A.S., priority 2009, dated 2014)
